These results are taken from patent US20050118099A1, “Thiol-mediated drug attachment to targeting peptides” (priority 2003, published 2005).

Data set [1] can be described thus: Animal weight in IMR-32 mouse xenograft model. The data set is classed as in vivo. The note with it: AE at 75% of the MTD. How it is done:
(§1) FIGS. 3A-3B are line graphs depicting tumor growth inhibition in an IMR-32 mouse xenograft model following administration of AE (◯), 1×CP1-FKMMAE (□), or 3×CP1-FKMMAE (⋄). The control sample depicts uninhibited tumor growth (X). Arrows indicate the times of administration, as described in Example 5.
(§2) The tumoricidal effects of CP1-FKMMAE were evaluated in a mouse xenograft model. Tumors were established in nude mice by subcutaneous injection of IMR-32 cells. A multiple dose regimen was evaluated based on prior studies using AE, which determined a MTD following four administrations of 0.4 mg/kg. Due to limited availability, AE was used at 75% of the MTD. CP1-FKMMAE was administered at 1× and 3× molar equivalents of AE according to the same dosing schedule. Tumor volume, animal weight, and serum growth hormone levels were assessed for each treatment group.

The conditions of data set [2]: following four administrations; prior studies; cited from earlier work.
A further data set deals with growth hormone. As to the kind of experiment: Serum growth hormone levels (ELISA) in IMR-32 mouse xenograft model. In kind it is in vivo. The note with it: AE at 75% of the MTD, potential toxicity to the pituitary gland. How it is done:
FIG. 4 is a line graph depicting growth hormone levels in an IMR-32 mouse xenograft model following administration of AE (◯), 1×CP1-FKMMAE (□), or 3×CP1-FKMMAE (⋄). The control sample depicts growth hormone levels in the absence of treatment (X). Arrows indicate the times of administration, as described in Example 5. Serum growth hormone levels were determined by ELISA to assess potential toxicity to the pituitary gland.
as §2
(ELISA stands for enzyme-linked immunosorbent assay.)

The test system of a further data set is IMR-32 cells. As to the kind of experiment: Tumor growth inhibition in IMR-32 mouse xenograft model. The settings on record: AE at 75% of the MTD, multiple dose regimen. In kind it is in vivo. How it is done: as §1, §2
The target in data set [3] is human somatostatin receptor SSTR2 of IMR-32 human neuroblastoma cells (human) (UniProt P30874). As to the kind of experiment: uptake of applied cpm by SSTR+ human cancer cells, 20-24 h at 37 C, gamma counting.
UniProt P30874, sequence (P30874 whole entry): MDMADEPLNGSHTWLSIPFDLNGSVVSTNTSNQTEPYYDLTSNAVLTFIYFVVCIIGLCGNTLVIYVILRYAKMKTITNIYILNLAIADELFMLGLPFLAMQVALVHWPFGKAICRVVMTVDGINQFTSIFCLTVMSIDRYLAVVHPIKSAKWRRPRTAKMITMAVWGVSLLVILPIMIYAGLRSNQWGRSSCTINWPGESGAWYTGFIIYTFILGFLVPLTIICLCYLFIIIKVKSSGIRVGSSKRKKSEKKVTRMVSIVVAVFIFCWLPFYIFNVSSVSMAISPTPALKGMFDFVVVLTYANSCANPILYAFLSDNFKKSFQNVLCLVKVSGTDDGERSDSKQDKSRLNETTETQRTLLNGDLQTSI
For data set [4] the target is unchanged. As to the kind of experiment: uptake of applied cpm by SSTR+ human cancer cells; competitor somatostatin at 1000X molar excess.
Data set [5] has the same target. As to the kind of experiment: competition with Indium-111-octreotide on IMR-32 membrane extracts, filter assay, gamma counting.

With `CC[C@H](C)[C@@H]([C@@H](CC(=O)N1CCC[C@H]1[C@H](OC)[C@@H](C)C(=O)N[C@H](C)[C@@H](O)c1ccccc1)OC)N(C)C(=O)[C@@H](NC(=O)[C@H](C(C)C)N(C)C)C(C)C` [AE, Auristatin E], the Mean mouse weight entry in data set [1] is “slightly increased”. Further, the “MTD (maximal tolerable dose)” value in data set [2] is 0.4 mg/kg. Further, in the data set on growth hormone, the “Serum growth hormone levels” value was “relative stability”. Further, in the data set on IMR-32 cells, the Mean tumor volume result was “reduction in mean tumor volume”.
Consider Indium-111-octreotide (peptide), for which the Percentage (%) Uptake in data set [3] came out at 4.4%. Moreover, the Percentage (%) Uptake in the Presence of 1000X SST in data set [4] is 0.1%.
For the compound octreotide (unlabeled) (peptide), in data set [5], the IC50 – broadly, the concentration needed to halve the response being measured – stood at 3 nM.
